According to patent US20050164182A1, “Nucleotide analogues” (priority 2001, published 2005):
Entries after “also recorded” stand apart in the source; their conditions may differ.

Assays:
[1] = target: T1, subtilisin (Subtilopeptidase A, type VIII) (Bacillus licheniformis, UniProt P00780); test: Protease mediated cleavage of FamHex-GGL-β-A-2′dU, HPLC and MALDI-TOF analysis; assay type: biochemical; conditions: 2 hours at 37° C., pH 7.5
T1 construct: purchased Sigma Chemical Co. UK
T1 sequence (P00780 106-379): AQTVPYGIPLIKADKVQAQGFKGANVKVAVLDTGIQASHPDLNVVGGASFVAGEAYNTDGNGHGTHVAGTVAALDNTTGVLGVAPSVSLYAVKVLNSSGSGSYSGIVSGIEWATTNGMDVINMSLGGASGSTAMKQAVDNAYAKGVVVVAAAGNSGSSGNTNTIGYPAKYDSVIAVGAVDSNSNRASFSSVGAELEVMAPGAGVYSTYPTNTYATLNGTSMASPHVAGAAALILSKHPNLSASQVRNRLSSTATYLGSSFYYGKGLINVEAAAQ
Experimental: A 10 μg aliquot of the substrate FAMHEX-GGL-β-A 2′dU (compound 6 above) was dissolved in 0.1M sodium acetate buffer pH 7.5 containing 5 mM calcium acetate. The substrate solution was digested at 37° C. for 2 hours in 200 μl in the presence of 0.5 units of subtilisin (Subtilopeptidase A, type VIII, Sigma Chemical Co. UK).
The resulting digest was ultrafiltered using a Microcon YM10 Concentrator (Milipore Ltd., UK) and the filtrate analysed by HPLC (Gilson 170, Gilson, UK) on a Sephasil™ peptide C-18 column (Amersham Biosicences, UK). […] These eluted at 29.8 (I), 32.6 (II), 26.7 (III) and 37.1 (IV) minutes on an acetonitrile gradient of 50% to 70%. The peaks were collected and analysed by MALDI-TOF mass spectrometry (Bruker Biflex II, Brucker, Germany). A matrix of 10 mg/ml 3-hydroxycinnamic acid in acetonitrile and 1% TFA was used for the analysis. The mass spectrometer was calibrated with 100 mM Bradykinin 1-7 (Sigma Chemical Co., UK).

Thermosequenase = test: Primer extension reactions: incorporation of fluorescently labelled deoxynucleotide triphosphates by DNA polymerase; assay type: biochemical; conditions: number of consecutive fluor-labelled nucleotides added; templates with 2, 3 or 8 consecutive A residues; 48° C. for 45 minutes

Substance | cleavage of the linker by subtilisin [1] | site of hydrolysis by subtilisin ([1]; molecular ion of 717 in peak II) | predominant product with templates 3, 4 and 5 (Thermosequenase)
5-N-[N-(6-Fluorescein-5(and 6)carboxamidohexanoyl)-Gly-Gly-Leu-β-alanyl]-propargylamino-2′-deoxyuridine [Compound 6] | consistent with the cleavage of the linker by the subtilisin enzyme; also recorded: readily digested by subtilisin | at the peptide bond on the carboxyl side of the leucine residue; also recorded: cleaves at the leucine residue | 
Alexa Fluor 568-5-dUTP [Alexa 568-5-dUTP] |  |  | One addition
Alexa Fluor 594-5-dUTP [Alexa 594-5-dUTP] |  |  | One addition
Cy3 dUTP |  |  | One addition, with minor two additions
Cy5 dUTP |  |  | One addition, with minor two additions
Lissamine-5-dUTP |  |  | One addition, with very slight two additions
Texas Red-5-dUTP |  |  | One addition, with very slight two additions
